# Columns and labels:
# Osteoclast [1] = experiment: Inhibition of osteoclastogenesis in RANKL/M-CSF-stimulated osteoclast; type: functional, cell-based
# Osteoclast [2] = experiment: Inhibition of osteoclastogenesis in RANKL-stimulated mouse osteoclast at 10 uM; type: functional
# Osteoclast [3] = experiment: Inhibition of osteoclastogenesis in RANKL-stimulated mouse osteoclast at 20 uM; type: functional
# MC3T3-E1 [4] = experiment: Induction of osteogenesis in mouse MC3T3-E1 cells assessed as increase in osteoblast differentiation-associated ALP level at 0.03 uM; type: functional
# MC3T3-E1 [5] = experiment: Induction of osteogenesis in mouse MC3T3-E1 cells assessed as increase in osteoblast differentiation-associated collagen synthesis at 0.03 uM; type: functional
# MC3T3-E1 [6] = experiment: Induction of osteogenesis in mouse MC3T3-E1 cells assessed as increase in bone mineralization at 0.03 uM; type: functional
# [7] = Clearance in po dosed rat; type: ADME, organism-based; conditions: in vivo
# [8] = Half life in po dosed rat; type: ADME, organism-based; conditions: in vivo
# [9] = Induction of osteogenesis in rat UMR106 cells assessed as stimulation of cell proliferation at 10 nM; type: functional
# Cannabinoid receptor 1 = Cannabinoid receptor 1 (Homo sapiens, UniProt P21554)
# Cannabinoid receptor 1, sequence (P21554 whole entry): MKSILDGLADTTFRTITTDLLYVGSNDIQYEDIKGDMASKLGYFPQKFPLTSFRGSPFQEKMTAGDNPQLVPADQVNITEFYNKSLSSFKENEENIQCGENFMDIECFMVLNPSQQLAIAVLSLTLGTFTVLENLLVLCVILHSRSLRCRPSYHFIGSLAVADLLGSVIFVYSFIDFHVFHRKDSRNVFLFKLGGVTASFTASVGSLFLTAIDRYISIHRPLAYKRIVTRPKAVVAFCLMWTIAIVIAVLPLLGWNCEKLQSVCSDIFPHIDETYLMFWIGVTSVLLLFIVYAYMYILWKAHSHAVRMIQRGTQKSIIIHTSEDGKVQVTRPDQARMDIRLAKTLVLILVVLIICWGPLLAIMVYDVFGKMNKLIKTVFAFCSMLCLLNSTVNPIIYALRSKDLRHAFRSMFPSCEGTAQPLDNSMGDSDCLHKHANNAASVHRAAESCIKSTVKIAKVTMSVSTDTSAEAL
# Rattus norvegicus [10] = experiment: Induction of bone formation in ovariectomized rat assessed as increase in bone mineralizing surface area at 30 mg/kg, po after 28 days (RVb = 30.4%); type: functional
# Rattus norvegicus [11] = experiment: Induction of bone formation in ovariectomized rat assessed as bone mineral apposition rate per day at 30 mg/kg, po after 28 days (RVb = 1.43 uM); type: functional
# [12] = Selectivity for cathepsin K over cathepsin L
# [13] = Selectivity for cathepsin K over cathepsin S
# Cathepsin K = Cathepsin K (Homo sapiens, UniProt P43235)
# Cathepsin K, sequence (P43235 whole entry): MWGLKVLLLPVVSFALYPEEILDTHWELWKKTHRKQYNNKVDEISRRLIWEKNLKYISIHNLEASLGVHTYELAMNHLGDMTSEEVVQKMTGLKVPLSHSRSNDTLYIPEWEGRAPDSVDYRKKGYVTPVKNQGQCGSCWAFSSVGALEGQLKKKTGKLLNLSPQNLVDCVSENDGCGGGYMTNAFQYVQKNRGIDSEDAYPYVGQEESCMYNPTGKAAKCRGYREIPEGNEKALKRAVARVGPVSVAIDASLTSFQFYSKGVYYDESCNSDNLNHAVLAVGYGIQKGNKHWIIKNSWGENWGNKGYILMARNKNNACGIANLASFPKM
# Homo sapiens [14] = experiment: Antiosteoporotic activity in men with osteoporosis assessed as decrease in bone resorption-associated serum CTX-1 level at 250 mg/kg after 10 to 14 days; type: functional, organism-based; parameters: dose 250 mg/kg; conditions: dose 250 mg/kg
# Homo sapiens [15] = experiment: Antiosteoporotic activity in men with osteoporosis assessed as decrease in bone resorption-associated urinary CTX-1 level at 250 mg/kg after 10 to 14 days; type: functional; conditions: Urine
# Osteoclast [16] = experiment: Inhibition of osteoclast differentiation; type: functional, cell-based
# Cannabinoid receptor 2 = Cannabinoid receptor 2 (Homo sapiens, UniProt P34972); experiment: Antagonist activity at cannabinoid CB2 receptor; type: functional
# Cannabinoid receptor 2, sequence (P34972 whole entry): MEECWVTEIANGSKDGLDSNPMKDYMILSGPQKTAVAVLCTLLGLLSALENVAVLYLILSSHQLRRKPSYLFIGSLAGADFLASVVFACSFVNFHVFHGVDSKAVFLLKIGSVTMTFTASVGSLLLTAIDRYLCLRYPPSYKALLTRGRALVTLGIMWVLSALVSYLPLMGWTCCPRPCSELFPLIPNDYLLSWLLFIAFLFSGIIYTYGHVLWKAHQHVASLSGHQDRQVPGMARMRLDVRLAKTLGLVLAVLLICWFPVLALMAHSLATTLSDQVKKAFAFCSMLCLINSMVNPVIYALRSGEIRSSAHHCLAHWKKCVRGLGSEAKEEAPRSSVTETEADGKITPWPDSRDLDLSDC
# MC3T3-E1 [17] = experiment: Induction of osteogenesis in mouse MC3T3-E1 cells assessed as increase in osteoblast differentiation-associated ALP level at 0.3 uM; type: functional
# MC3T3-E1 [18] = experiment: Induction of osteogenesis in mouse MC3T3-E1 cells assessed as increase in osteoblast differentiation-associated collagen synthesis at 0.3 uM; type: functional
# MC3T3-E1 [19] = experiment: Induction of osteogenesis in mouse MC3T3-E1 cells assessed as increase in bone mineralization at 0.3 uM; type: functional
# MC3T3-E1 [20] = experiment: Induction of osteogenesis in mouse MC3T3-E1 cells assessed as increase in osteoblast differentiation-associated collagen synthesis at 0.01 uM; type: functional
# MC3T3-E1 [21] = experiment: Induction of osteogenesis in mouse MC3T3-E1 cells assessed as increase in bone mineralization at 1 uM; type: functional
# [22] = Selectivity for cathepsin K over cathepsin B
# [23] = Selectivity for integrin alphaVbeta3 over integrin alpha2Bbeta3
# Integrin alpha-V/beta-3 = Integrin alpha-V/beta-3 (Homo sapiens, UniProt P05106+P06756); experiment: Inhibition of integrin alpha-V-beta-3-mediated adhesion of HEK293 cells; type: cell-based
# [24] = molecular target: Integrin alpha-V/beta-5 (Homo sapiens) (UniProt P06756+P18084); experiment: Inhibition of integrin alpha-V-beta-5-mediated adhesion of HEK293 cells; type: cell-based
# [25] = molecular target: Integrin alpha-V/beta-1 (Homo sapiens) (UniProt P05556+P06756); experiment: Inhibition of integrin alpha-V-beta-1-mediated adhesion of HEK293 cells; type: cell-based
# [26] = molecular target: Integrin alpha-V/beta-6 (Homo sapiens) (UniProt P06756+P18564); experiment: Inhibition of integrin alpha-V-beta-6-mediated adhesion of human HT-29 cells; type: cell-based
smiles,measurement,setting,value
CC1(C)C(=O)CC[C@]2(C)[C@@H]1CC[C@@]13CC4[C@@H](C[C@H]12)[C@]4(C(=O)O)C3,IC50,Osteoclast [1],4 µM
O=C(O[C@@H]1Cc2c(O)cc(O)cc2O[C@@H]1c1cc(O)c(O)c(O)c1)c1cc(O)c(O)c(O)c1 [EPIGALOCATECHIN GALLATE],inhibition at 10 µM,Osteoclast [2],17%
same,inhibition at 20 µM,Osteoclast [3],32%
C=CCc1ccc(O)c(O[C@@H]2O[C@H](CO[C@@H]3OC[C@](O)(CO)[C@H]3O)[C@@H](O)[C@H](O)[C@H]2O)c1 [MANGLIESIDE B],Activity,MC3T3-E1 [4],114%
same,Activity,MC3T3-E1 [5],123%
same,Activity,MC3T3-E1 [6],118%
O=C(O)c1ccc(CCCN2C(=O)CC[C@@H]2CC[C@@H](O)Cc2cccc(C(F)(F)F)c2)s1,CL/F,[7],70 mL/min/kg
same,half-life,[8],12 min
O=c1c(O[C@@H]2O[C@H](CO)[C@@H](O)[C@H](O)[C@H]2O)c(-c2ccc(O)cc2)oc2cc(O[C@@H]3O[C@@H](CO)[C@H](O)[C@H]3O)cc(O)c12,Activity,[9],35.9%
CCCCCCC(C)(C)c1cc(OC)c([C@H]2C=C(CO)[C@@H]3C[C@H]2C3(C)C)c(OC)c1,Ki,Cannabinoid receptor 1,≥ 10 µM
CN(c1ccccc1CNc1nc(Nc2ccc3c(c2)CC(=O)N3)ncc1C(F)(F)F)S(C)(=O)=O,Activity,Rattus norvegicus [10],40.6%
same,mineral apposition rate,Rattus norvegicus [11],1.96 µm/day
CC(C)(C)Cn1c(CN2C(=O)CC3(CCNCC3)C2=O)cc2cnc(C#N)nc21,Selectivity ratio,[12],> 1000
same,Selectivity ratio,[13],> 10000
same,IC50,Cathepsin K,< 0.001 µM
CN1CCN(CCOc2cc(OC3CCOCC3)c3c(Nc4c(Cl)ccc5c4OCO5)ncnc3c2)CC1 [SARACATINIB],inhibition in vivo at 250 mg/kg,Homo sapiens [14],88%
same,inhibition in vivo at 250 mg/kg,Homo sapiens [15],67%
COc1ccc(C(=O)c2c(C)n(CCN3CCOCC3)c3cc(I)ccc23)cc1,IC50,Osteoclast [16],0.33 µM
same,IC50,Cannabinoid receptor 2,7.2 µM
CO[C@@]1(C)CC/C=C(\C)CCC2=C(C)CO[C@H]2/C=C(\C)CC[C@@H]1O,Activity,MC3T3-E1 [17],127.8%
same,Activity,MC3T3-E1 [18],108.2%
same,Activity,MC3T3-E1 [19],110.6%
COc1c(O)cc2c(O)c3c(O)c(O)c(O[C@@H]4O[C@@H](C)[C@H](O)[C@@H](O)[C@H]4O)cc3c(O)c2c1O,Activity,MC3T3-E1 [20],111%
same,Activity,MC3T3-E1 [21],125%
CN1CCN(c2nc(-c3ccc(C(=O)NC4(C(=O)N[C@@H]5C(=O)N[C@@H]5Oc5ccccc5)CCCCC4)cc3)cs2)CC1,Selectivity ratio,[22],71
same,Selectivity ratio,[12],500
same,Selectivity ratio,[13],3540
same,Ki,Cathepsin K,0.0048 µM
O=C(O)C[C@H](Cc1nc(CCCc2ccc3c(n2)NCCC3)no1)c1ccc2c(c1)OCO2,Selectivity ratio,[23],67
same,Activity,Integrin alpha-V/beta-3,0.65 nM
same,Activity,[24],1.7 nM
same,Activity,[25],2.6 nM
same,Activity,[26],2.7 µM
